Assay results: patent US6440999B1, “Intimal thickening inhibitory agent” (Chugai Seiyaku Kabushiki Kaisha, priority 1995, dated 2002)

System: A7r5 cells derived from the aorta of a rat
Assay: Inhibition of serum-stimulated proliferation of vascular smooth muscle cells, BrdU uptake (EIA)
Type: cell-based
Conditions: for Absorbance (difference between 405 nm and 492 nm), BrdU uptake: n = 3, mean ± SD
Description: In order to assess the inhibitory effect of a compound of the present invention on serum-stimulated pro-liferation of vascular smooth muscle cells in vitro, the compound obtained in Example 36 was tested using A7r5 cells derived from the aorta of a rat (ATCC-CRL-1444).
Using DMEM medium containing 10% FBS, the cells were placed on 96-well microtiter plates with 5×10^3 cells/0.2 ml/well and then incubated. The medium was exchanged for 2% FBS-containing DMEM medium on the third day and then for 0.2% FBS-containing DMEM medium on the fourth day from the start of the incubation. After 48-hour incubation in the 0.2% FBS-containing DMEM medium, the medium was removed, 0.1 ml of DMEM medium and the test compound were added, and the cells were stimulated with serum (2% FBS) to proliferate. The test compound was added to the wells in the form of a solution or suspension in ethanol in an amount of 0.5 μl/well to final compound concentrations indicated in Table 1 below and the resultant ethanol concentration of 0.5% in each well. BrdU was pulsed to the wells from the 16th to 38th hours or from the 38th to 64th hours after the stimulation to a final concentration of 10 μM, and the uptake of BrdU into DNA was evaluated as an indication of cell proliferation. The BrdU uptake was measured by means of an EIA kit containing an anti-BrdU antibody (5-Bromo-2′-deoxy-uridine Labeling and Detection Kit III, available from Bohringer Mannheim Biochemica).

## CCCCCC1(CCCCC)Cc2c(cc(C(C)(C)C)c(O)c2C(C)(C)C)O1 [Example 36, 4,6-Di-t-butyl-2,2-di-n-pentyl-5-hydroxy-2,3-dihydrobenzofuran]
10 μM, BrdU pulse 16-38 hrs. after 2% FBS stimulation, control 0.433 ± 0.008
  Absorbance (difference between 405 nm and 492 nm), BrdU uptake: 0.397 ± 0.054
10 μM, BrdU pulse 38-64 hrs. after 2% FBS stimulation, control 0.436 ± 0.060
  Absorbance (difference between 405 nm and 492 nm), BrdU uptake: 0.195 ± 0.017
30 μM, BrdU pulse 16-38 hrs. after 2% FBS stimulation, control 0.433 ± 0.008
  Absorbance (difference between 405 nm and 492 nm), BrdU uptake: 0.362 ± 0.026
30 μM, BrdU pulse 38-64 hrs. after 2% FBS stimulation, control 0.436 ± 0.060
  Absorbance (difference between 405 nm and 492 nm), BrdU uptake: 0.085 ± 0.006
100 μM, BrdU pulse 16-38 hrs. after 2% FBS stimulation, control 0.433 ± 0.008
  Absorbance (difference between 405 nm and 492 nm), BrdU uptake: 0.290 ± 0.031
100 μM, BrdU pulse 38-64 hrs. after 2% FBS stimulation, control 0.436 ± 0.060
  Absorbance (difference between 405 nm and 492 nm), BrdU uptake: 0.049 ± 0.006
BrdU uptake, 10-100 μM
  Inhibition of serum-stimulated proliferation of vascular smooth muscle cells (in words): inhibits the serum-stimulated proliferation of vascular smooth muscle cells dose-dependently
